Test results: PMC3196344 (Nature medicine, 2009)

Columns and labels:
thymocytes = conditions: after dex treatment; cited from earlier work
CD4+/CD8+ thymocytes = test: Flow cytometry of thymocytes from dex-treated mice; format: in vivo, BALB/c mice; conditions: measured by a drop in this cell population over time; dex 50 mg/kg IP
[1] = exposed during late stages of apoptosis; cited from earlier work
[2] = leading to high background signals; cited from earlier work
legumain [3] = test: Legumain labeling in COLO205 tumors of Apomab-treated mice, SDS-PAGE; format: in vivo, human colorectal cancer COLO205 xenograft in nude mice; conditions: Apomab 10 mg/kg IV; AB50-Cy5
caspase-3/7 = test: Caspase labeling in COLO205 tumors of Apomab-treated mice, SDS-PAGE; format: in vivo, human colorectal cancer COLO205 xenograft in nude mice; conditions: Apomab 10 mg/kg IV; AB50-Cy5 50 nmol IV 1 h; COLO205 xenograft
legumain [4] = conditions: cited from earlier work
caspases-3/7 = conditions: cited from earlier work
cathepsins = conditions: cited from earlier work

Compound: C[C@@H]1C[C@H]2[C@@H]3CCC4=CC(=O)C=C[C@]4(C)[C@@]3(F)[C@@H](O)C[C@]2(C)[C@@]1(O)C(=O)CO [dexamethasone]
- TUNEL+ staining at 18 and 24 hours (thymocytes): sharp decrease
- induction of apoptosis in CD4+/CD8+ cells (CD4+/CD8+ thymocytes): specifically induced apoptosis in CD4+/CD8+ cells

Compound: Annexin V: protein with high affinity for phosphatidylserines exposed during the late stages of apoptosis
- affinity for phosphatidylserines [1]: high affinity
- clearance in vivo [2]: slow clearance in vivo

Compound: Apomab: monoclonal antibody that induces the extrinsic apoptosis pathway by binding to death receptor 5
- legumain labeling over time course after Apomab (legumain [3]): constant throughout the time course
- time of optimal (peak) caspase activity after Apomab (caspase-3/7): 12 h

Compound: Asp-Glu-Val-Asp [DEVD]
- recognition by legumain (legumain [4]): efficiently recognized
- recognition by caspases-3/7 (caspases-3/7): optimal
- recognition by cathepsins (cathepsins): efficiently recognized
